Reference: US20210317140A1, “Heterocyclic Compounds and Methods of Use” (MEDIVATION TECHNOLOGIES, INC, priority 2013, published 2021)

How the values were obtained:
PI3Kδ = target: T1, PI3Kδ (Homo sapiens, UniProt O00329); assay: PI3Kδ kinase assay (HTRF, PIP3 detection); type: biochemical; settings: for PI3Kδ @ 0.1 μM (% Inh): 0.1 μM compound; for PI3Kδ @ 0.1 μM (% Inh) / PI3Kδ @ 1 μM (% Inh) / PI3Kδ @ 0.01 μM (% Inh): 10 μM ATP; for PI3Kδ @ 1 μM (% Inh): 1 μM compound; for IC50: 10 dose IC50, 10 μM ATP; for PI3Kδ @ 0.01 μM (% Inh): 0.01 μM compound
T1 construct: purchased Reaction Biology Corporation
From the text: (§1) Compounds of the invention were profiled in a 10 dose IC50 panel against BTK and PI3Kδ, both provided by Reaction Biology Corporation.
PI3Kδ assay: The PIP3 product is detected by displacement of biotin-PIP3 from an energy transfer complex consisting of Europium labeled anti-GST monoclonal antibody, a GST-tagged pleckstrin homology (PH) domain, biotinylated PIP3 and Streptavidin-Allophycocyanin (APC). […] The PIP3 product formed by PI 3-Kinase(h) activity displaces biotin-PIP3 from the complex resulting in a loss of energy transfer and thus a decrease in signal. This is a 3-step reaction: First, the kinase reaction with PIP2 substrate is carried out in the presence of ATP (10 μM), and the reaction is quenched with stop Solution, and then finally detect by adding Detection Mixture followed by incubation (10 min). Reaction procedure: 1) Prepare substrate in freshly prepared Reaction Buffer. 2) Deliver kinase into the substrate solution and gently mix. 3) Deliver compounds in 100% DMSO (1 μM) into the kinase reaction mixture by Acoustic technology (Echo550; nanoliter range), incubate for 10 min at RT. 4) Deliver ATP into the reaction mixture to initiate the reaction. 5) Incubate for 30 min at 30° C. 6) Quench the reaction with Stop Solution. 7) Add Detection Mixture, and incubate for overnight. […] The emission ratio is converted into μM PIP3 production based on PIP3 standard curves. The nonlinear regression to obtain the standard curve and IC50 values are performed using Graphpad Prism software. Assay Buffer: HEPES 50 mM (pH7.0), NaN3 0.02%, BSA 0.01%, Orthovanadate 0.1 mM, 1% DMSO. Detection buffer: HEPES 10 mM (pH7.0), BSA 0.02%, KF 0.16 M, EDTA 4 mM. Substrate: 10 μM PIP2 substrate (PI(4,5)P2).

BTK = target: T2, BTK (Homo sapiens, UniProt Q06187); assay: BTK kinase assay (HotSpot, 33P ATP); type: biochemical; settings: for BTK @ 0.1 μM (% Inh): 0.1 μM compound; for BTK @ 0.1 μM (% Inh) / BTK @ 1 μM (% Inh) / BTK @ 0.01 μM (% Inh): 10 μM ATP; for BTK @ 1 μM (% Inh): 1 μM compound; for IC50: 10 dose IC50, 10 μM ATP; for BTK @ 0.01 μM (% Inh): 0.01 μM compound
T2 construct: purchased Reaction Biology Corporation
Procedure: as §1
BTK assay: In vitro profiling protein kinases was performed using the “HotSpot” assay platform. Briefly, specific kinase/substrate pairs along with required cofactors were prepared in reaction buffer. Compounds were prepared as 10 mM stock solutions in DMSO. Compounds were delivered into the reaction, followed 15-20 minutes later by addition of a mixture of ATP (Sigma, St. Louis Mo.) and ^33P ATP (Perkin Elmer, Waltham Mass.) to a final concentration of 10 μM. […] IC50 values and curve fits were obtained using Prism (GraphPad Software). Buffer Conditions: 20 mM Hepes (pH 7.5), 10 mM MgCl2, 1 mM EGTA, 0.02% Brij35, 0.02 mg/mL BSA, 0.1 mM Na3VO4, 2 mM DTT, 1% DMSO.

T1 sequence (O00329 whole entry): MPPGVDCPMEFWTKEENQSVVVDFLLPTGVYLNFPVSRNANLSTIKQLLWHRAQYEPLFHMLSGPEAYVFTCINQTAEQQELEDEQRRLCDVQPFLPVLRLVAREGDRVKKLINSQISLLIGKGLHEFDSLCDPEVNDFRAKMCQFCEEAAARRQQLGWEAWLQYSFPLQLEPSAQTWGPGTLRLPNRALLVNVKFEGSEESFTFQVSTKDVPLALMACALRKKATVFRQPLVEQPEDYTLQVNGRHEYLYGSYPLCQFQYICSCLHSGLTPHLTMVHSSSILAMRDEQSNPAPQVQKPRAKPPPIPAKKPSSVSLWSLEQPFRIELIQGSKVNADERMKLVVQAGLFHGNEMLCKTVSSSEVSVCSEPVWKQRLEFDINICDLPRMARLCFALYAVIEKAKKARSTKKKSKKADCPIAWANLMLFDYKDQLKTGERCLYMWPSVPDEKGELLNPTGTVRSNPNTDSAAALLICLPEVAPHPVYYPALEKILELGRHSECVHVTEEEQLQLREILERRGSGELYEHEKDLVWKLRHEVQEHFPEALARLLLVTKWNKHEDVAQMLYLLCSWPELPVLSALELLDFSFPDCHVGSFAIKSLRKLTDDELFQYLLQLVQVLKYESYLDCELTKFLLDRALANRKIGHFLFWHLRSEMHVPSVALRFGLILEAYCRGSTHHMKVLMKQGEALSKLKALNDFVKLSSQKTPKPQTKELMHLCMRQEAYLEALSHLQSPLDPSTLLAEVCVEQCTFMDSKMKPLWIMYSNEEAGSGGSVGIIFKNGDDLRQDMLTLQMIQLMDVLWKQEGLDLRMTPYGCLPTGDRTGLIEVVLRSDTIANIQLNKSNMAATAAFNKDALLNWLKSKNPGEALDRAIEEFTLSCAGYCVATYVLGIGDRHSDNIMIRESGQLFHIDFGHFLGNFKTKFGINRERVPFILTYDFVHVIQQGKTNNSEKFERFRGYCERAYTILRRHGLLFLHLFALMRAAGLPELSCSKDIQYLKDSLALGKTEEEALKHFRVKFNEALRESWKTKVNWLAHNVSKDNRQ
T1 sequence (P27986 whole entry partner): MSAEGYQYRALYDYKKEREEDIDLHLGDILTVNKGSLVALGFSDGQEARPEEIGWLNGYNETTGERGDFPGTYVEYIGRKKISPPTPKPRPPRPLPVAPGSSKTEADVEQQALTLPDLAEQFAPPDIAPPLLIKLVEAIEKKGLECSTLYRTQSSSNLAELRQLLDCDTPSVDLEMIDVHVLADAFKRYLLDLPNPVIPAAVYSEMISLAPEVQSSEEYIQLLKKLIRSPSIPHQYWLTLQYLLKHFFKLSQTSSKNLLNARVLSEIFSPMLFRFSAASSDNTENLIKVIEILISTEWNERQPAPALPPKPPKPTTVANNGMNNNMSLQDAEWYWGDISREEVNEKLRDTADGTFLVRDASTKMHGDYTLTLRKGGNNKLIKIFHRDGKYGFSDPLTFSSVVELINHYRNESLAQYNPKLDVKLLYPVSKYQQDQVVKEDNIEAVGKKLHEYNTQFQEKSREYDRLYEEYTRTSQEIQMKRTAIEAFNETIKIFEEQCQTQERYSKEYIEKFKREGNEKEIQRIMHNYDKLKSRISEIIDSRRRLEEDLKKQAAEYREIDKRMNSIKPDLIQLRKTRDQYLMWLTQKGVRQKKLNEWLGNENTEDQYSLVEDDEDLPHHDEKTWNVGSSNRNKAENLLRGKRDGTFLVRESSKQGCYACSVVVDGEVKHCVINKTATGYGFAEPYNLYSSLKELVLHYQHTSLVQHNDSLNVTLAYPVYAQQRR
T2 sequence (Q06187 whole entry): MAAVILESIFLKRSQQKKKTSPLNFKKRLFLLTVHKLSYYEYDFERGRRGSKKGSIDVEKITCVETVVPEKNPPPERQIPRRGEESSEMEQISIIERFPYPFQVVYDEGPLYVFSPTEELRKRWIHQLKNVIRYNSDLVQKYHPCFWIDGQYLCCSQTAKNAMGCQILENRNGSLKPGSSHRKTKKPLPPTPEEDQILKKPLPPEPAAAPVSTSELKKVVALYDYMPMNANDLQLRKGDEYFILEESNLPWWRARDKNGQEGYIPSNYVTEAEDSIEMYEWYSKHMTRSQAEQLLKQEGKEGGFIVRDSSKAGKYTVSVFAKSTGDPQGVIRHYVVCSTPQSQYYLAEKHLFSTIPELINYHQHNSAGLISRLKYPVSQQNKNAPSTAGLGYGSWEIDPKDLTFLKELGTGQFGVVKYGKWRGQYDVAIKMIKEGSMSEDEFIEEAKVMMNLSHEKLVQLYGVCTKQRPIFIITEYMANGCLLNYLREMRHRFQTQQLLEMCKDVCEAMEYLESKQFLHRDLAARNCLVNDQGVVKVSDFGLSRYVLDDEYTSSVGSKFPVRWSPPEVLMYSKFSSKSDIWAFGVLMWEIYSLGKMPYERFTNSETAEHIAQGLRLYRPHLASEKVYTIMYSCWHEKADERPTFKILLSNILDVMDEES

Structure (SMILES) | PI3Kδ @ 0.1 μM (% Inh) (PI3Kδ) | PI3Kδ @ 1 μM (% Inh) (PI3Kδ) | IC50 (PI3Kδ) [nM] | BTK @ 0.1 μM (% Inh) (BTK) | BTK @ 1 μM (% Inh) (BTK) | IC50 (BTK) [nM] | PI3Kδ @ 0.01 μM (% Inh) (PI3Kδ) | BTK @ 0.01 μM (% Inh) (BTK)
CCOc1ccc(-c2nn(C3Cc4ccccc4C3)c3ncnc(N)c23)cc1OC [Compound No. 71, 1-(2,3-dihydro-1H-inden-2-yl)-3-(4-ethoxy-3-methoxyphenyl)-1H-pyrazolo[3,4-d]pyrimidin-4-amine] | 47.56 | 89.24 | 63.9 | 24.51 | 71.58 | 392 | – | –
Nc1ncnc2c1c(-c1cc(O)cc(OC(F)(F)F)c1)nn2C1Cc2ccccc2C1 [Compound No. 72, 3-[4-amino-1-(2,3-dihydro-1H-inden-2-yl)-1H-pyrazolo[3,4-d]pyrimidin-3-yl]-5-(trifluoromethoxy)phenol] | 55.46 | 85.89 | – | 6.81 | 7.63 | – | – | –
COc1ccc(-c2nn(C3Cc4ccccc4C3)c3ncnc(N)c23)cc1N [Compound No. 73, 3-(3-amino-4-methoxyphenyl)-1-(2,3-dihydro-1H-inden-2-yl)-1H-pyrazolo[3,4-d]pyrimidin-4-amine] | 14.37 | 52.39 | 325 | 72.03 | 95.31 | 30.5 | – | –
Nc1ncnc2c1c(-c1ccc3c(c1)OCCCO3)nn2C1Cc2ccccc2C1 [Compound No. 74, 1-(2,3-dihydro-1H-inden-2-yl)-3-(3,4-dihydro-2H-1,5-benzodioxepin-7-yl)-1H-pyrazolo[3,4-d]pyrimidin-4-amine] | 10.99 | 65.15 | – | 10.82 | 33.05 | – | – | –
Nc1ncnc2c1c(-c1ccc3c(c1)OC(F)(F)O3)nn2C1Cc2ccccc2C1 [Compound No. 75, 3-(2,2-difluoro-2H-1,3-benzodioxol-5-yl)-1-(2,3-dihydro-1H-inden-2-yl)-1H-pyrazolo[3,4-d]pyrimidin-4-amine] | −0.46 | 15.57 | – | 10.92 | 29.0 | – | – | –
CCOc1cc(-c2nn(C3Cc4ccccc4C3)c3ncnc(N)c23)ccc1OC(F)(F)F [Compound No. 76, 1-(2,3-dihydro-1H-inden-2-yl)-3-[3-ethoxy-4-(trifluoromethoxy)phenyl]-1H-pyrazolo[3,4-d]pyrimidin-4-amine] | −13.69 | 13.55 | – | 5.47 | 6.5 | – | – | –
CCOc1c(Cl)cc(-c2nn(C3Cc4ccccc4C3)c3ncnc(N)c23)cc1OC [Compound No. 77, 3-(3-chloro-4-ethoxy-5-methoxyphenyl)-1-(2,3-dihydro-1H-inden-2-yl)-1H-pyrazolo[3,4-d]pyrimidin-4-amine] | −1.66 | 16.5 | – | 24.85 | 76.64 | – | – | –
Nc1ncnc2c1c(-c1cccc3[nH]ccc13)nn2C1Cc2ccccc2C1 [Compound No. 78, 1-(2,3-dihydro-1H-inden-2-yl)-3-(1H-indol-4-yl)-1H-pyrazolo[3,4-d]pyrimidin-4-amine] | 4.96 | 43.86 | – | 18.18 | 54.62 | – | – | –
CCOc1cc(-c2nn(C3Cc4ccccc4C3)c3ncnc(N)c23)cc(Cl)c1OC(C)C [Compound No. 79, 3-[3-chloro-5-ethoxy-4-(propan-2-yloxy)phenyl]-1-(2,3-dihydro-1H-inden-2-yl)-1H-pyrazolo[3,4-d]pyrimidin-4-amine] | 6.45 | 12.1 | – | 7.61 | 9.02 | – | – | –
COc1cc(-c2nn(C3Cc4ccccc4C3)c3ncnc(N)c23)cc(Cl)c1OC [Compound No. 80, 3-(3-chloro-4,5-dimethoxyphenyl)-1-(2,3-dihydro-1H-inden-2-yl)-1H-pyrazolo[3,4-d]pyrimidin-4-amine] | 5.1 | 29.99 | – | 45.74 | 68.21 | – | – | –
Cc1nc2ccc(-c3nn(C4Cc5ccccc5C4)c4ncnc(N)c34)cc2[nH]1 [Compound No. 82, 1-(2,3-dihydro-1H-inden-2-yl)-3-(2-methyl-1H-1,3-benzodiazol-6-yl)-1H-pyrazolo[3,4-d]pyrimidin-4-amine] | 41.76 | 82.95 | – | 11.64 | 30.18 | – | – | –
COc1ccc(-c2nn(C3Cc4ccccc4C3)c3ncnc(N)c23)c(OC)c1OC [Compound No. 83, 1-(2,3-dihydro-1H-inden-2-yl)-3-(2,3,4-trimethoxyphenyl)-1H-pyrazolo[3,4-d]pyrimidin-4-amine] | −5.17 | 13.54 | – | 10.79 | 18.4 | – | – | –
Nc1ncnc2c1c(-c1cc(F)c(F)c(F)c1)nn2C1Cc2ccccc2C1 [Compound No. 86, 1-(2,3-dihydro-1H-inden-2-yl)-3-(3,4,5-trifluorophenyl)-1H-pyrazolo[3,4-d]pyrimidin-4-amine] | 20.84 | – | – | 21.34 | – | – | 17.21 | 8.08
Nc1cc(-c2nn(C3Cc4ccccc4C3)c3ncnc(N)c23)ccc1F [Compound No. 87, 3-(3-amino-4-fluorophenyl)-1-(2,3-dihydro-1H-inden-2-yl)-1H-pyrazolo[3,4-d]pyrimidin-4-amine] | 8.16 | – | – | 78.95 | – | – | 13.47 | 34.28
Nc1ncnc2c1c(-c1cccc(F)c1)nn2C1Cc2ccccc2C1 [Compound No. 88, 1-(2,3-dihydro-1H-inden-2-yl)-3-(3-fluorophenyl)-1H-pyrazolo[3,4-d]pyrimidin-4-amine] | 15.89 | – | – | 17.55 | – | – | 18.98 | 7.67
Nc1ncnc2c1c(-c1ccc(F)c(F)c1)nn2C1Cc2ccccc2C1 [Compound No. 89, 3-(3,4-difluorophenyl)-1-(2,3-dihydro-1H-inden-2-yl)-1H-pyrazolo[3,4-d]pyrimidin-4-amine] | 17.95 | – | – | 30.58 | – | – | 0.76 | 8.84
CCCCOc1cc(-c2nn(C3Cc4ccccc4C3)c3ncnc(N)c23)ccc1OC [Compound No. 90, 3-(3-butoxy-4-methoxyphenyl)-1-(2,3-dihydro-1H-inden-2-yl)-1H-pyrazolo[3,4-d]pyrimidin-4-amine] | 44.39 | – | – | 6.79 | – | – | 9.23 | 7.39
